Source: patent US20070254910A1, “CHEMICAL COMPOUNDS” (priority 2004, published 2007)

Tested on: HIV
Experiment: HOS HIV anti-infectivity assay (strain not stated)
Type: cell-based
Conditions: Human immunodeficiency virus 1, HOS HIV anti-infectivity assay; read-out: Activity Level
Method: Compounds were profiled against two HIV-1 viruses, the M-tropic (CCR5 utilizing) Ba-L strain and the T-tropic (CXCR4 utilizing) IIIB strain. Both viruses were propagated in human peripheral blood lymphocytes. Compounds were tested for there ability to block infection of the HOS cell line (expressing hCXCR4/hCCR5/hCD4/pHIV-LTR-luciferase) by either HIV-1 Ba-L or HIV-1 IIIB. Compound cytotoxicity was also examined in the absence of virus addition.
HOS cells (expressing hCXCR4/hCCR5/hCD4/pHIV-LTR-luciferase) were harvested and diluted in Dulbeccos modified Eagles media supplemented with 2% FCS and non-essential amino acid to a concentration of 60,000 cells/ml. The cells were plated into 96-well plates (100 ul per well) and the plates were placed in a tissue culture incubator (37° C.; 5% CO2/95% air) for a period of 24 h.
Subsequently, 50 ul of the desired drug solution (4 times the final concentration) was added to each well and the plates were returned to the tissue culture incubator (37° C.; 5% CO2/95% air) for 1 h. Following this incubation 50 ul of diluted virus was added to each well (approximately 2 million RLU per well of virus). The plates were returned to the tissue culture incubator (37° C.; 5% CO2/95% air) and were incubated for a further 96 h.
Following this incubation the endpoint for the virally infected cultures was quantified following addition of Steady-Glo Luciferase assay system reagent (Promega, Madison, Wis.). Cell viability or non-infected cultures was measured using a CellTiter-Glo luminescent cell viability assay system (Promega, Madison, Wis.). All luminescent readouts are performed on a Topcount luminescence detector (Packard, Meridien, Conn.).

| SMILES | IC50 [nM] |
| --- | --- |
| CN1CCN(c2cccc3nc(CN(CC4CC4)[C@H]4CCCc5cccnc54)c(CO)n23)CC1 [Example 38, [2-({(Cyclopropylmethyl)[(8S)-5,6,7,8-tetrahydro-8-quinolinyl]amino}methyl)-5-(4-methyl-1-piperazinyl)imidazo[1,2-a]pyridin-3-yl]methanol] | < 100 |
| CN(Cc1nc2cccc(OCCN3CCCCC3)n2c1CO)[C@H]1CCCc2cccnc21 [Example 82, (2-({Methyl[(8S)-5,6,7,8-tetrahydro-8-quinolinyl]amino}methyl)-5-{[2-(1-piperidinyl)ethyl]oxy}imidazo[1,2-a]pyridin-3-yl)methanol] | < 100 |
| CN1CCN(c2cccc3nc(CN(Cc4ccccc4)[C@H]4CCCc5cccnc54)c(CO)n23)CC1 [Example 40, [5-(4-Methyl-1-piperazinyl)-2-({(phenylmethyl)[(8S)-5,6,7,8-tetrahydro-8-quinolinyl]amino}methyl)imidazo[1,2-a]pyridin-3-yl]methanol] | < 100 |
| COc1ccc([C@H](C)N(Cc2nc3cccc(N4CCN(C)CC4)n3c2CO)[C@H]2CCCc3cccnc32)cc1 [Example 22, [2-({{(1S)-1-[4-(Methyloxy)phenyl]ethyl}[(8S)-5,6,7,8-tetrahydro-8-quinolinyl]amino}methyl)-5-(4-methyl-1-piperazinyl)imidazo[1,2-a]pyridin-3-yl]methanol] | < 100 |
| CN(C)CCOc1cccc2nc(CN(C)[C@H]3CCCc4cccnc43)c(CO)n12 [Example 78, [5-{[2-(Dimethylamino)ethyl]oxy}-2-({methyl[(8S)-5,6,7,8-tetrahydro-8-quinolinyl]amino}methyl)imidazo[1,2-a]pyridin-3-yl]methanol] | < 100 |
| CN(Cc1nc2cccc(N3CC[C@@H](N)C3)n2c1CO)[C@H]1CCCc2cccnc21 [Example 60, [5-[(3R)-3-Amino-1-pyrrolidinyl]-2-({methyl[(8S)-5,6,7,8-tetrahydro-8-quinolinyl]amino}methyl)imidazo[1,2-a]pyridin-3-yl]methanol] | < 100 |
| CN(Cc1nc2cccc(OCCN3CCCC3)n2c1CO)[C@H]1CCCc2cccnc21 [Example 80, (2-({Methyl[(8S)-5,6,7,8-tetrahydro-8-quinolinyl]amino}methyl)-5-{[2-(1-pyrrolidinyl)ethyl]oxy}imidazo[1,2-a]pyridin-3-yl)methanol] | < 100 |
| CCC(O)c1c(CN(C)[C@H]2CCCc3cccnc32)nc2cccc(N3CCN(C)CC3)n12 (stereo partly drawn) [Example 85, 1-[5-(4-Methyl-1-piperazinyl)-2-({methyl[(8S)-5,6,7,8-tetrahydro-8-quinolinyl]amino}methyl)imidazo[1,2-a]pyridin-3-yl]-1-propanol] | < 100 |
| CN(C)[C@H]1CCN(c2cccc3nc(CN(C)[C@H]4CCCc5cccnc54)c(CO)n23)C1 [Example 58, [5-[(3S)-3-(Dimethylamino)-1-pyrrolidinyl]-2-({methyl[(8S)-5,6,7,8-tetrahydro-8-quinolinyl]amino}methyl)imidazo[1,2-a]pyridin-3-yl]methanol] | < 100 |
| CC(O)c1c(CN(C)[C@H]2CCCc3cccnc32)nc2cccc(N3CCN(C)CC3)n12 (stereo partly drawn) [Example 84, 1-[5-(4-Methyl-1-piperazinyl)-2-({methyl[(8S)-5,6,7,8-tetrahydro-8-quinolinyl]amino}methyl)imidazo[1,2-a]pyridin-3-yl]ethanol] | < 100 |
| CCN1CCN(c2cccc3nc(CN(C)[C@H]4CCCc5cccnc54)c(CO)n23)CC1 [Example 54, [5-(4-Ethyl-1-piperazinyl)-2-({methyl[(8S)-5,6,7,8-tetrahydro-8-quinolinyl]amino}methyl)imidazo[1,2-a]pyridin-3-yl]methanol] | < 100 |
| COCc1c(CN(C)[C@H]2CCCc3cccnc32)nc2cccc(N3CCN(C)CC3)n12 [Example 86, (8S)—N-Methyl-N-{[3-[(methyloxy)methyl]-5-(4-methyl-1-piperazinyl)imidazo[1,2-a]pyridin-2-yl]methyl}-5,6,7,8-tetrahydro-8-quinolinamine] | < 100 |
| CN1CCN(c2cccc3nc(CN(C)C4CCCCc5cccnc54)c(CO)n23)CC1 (stereo not shown) [Example 30, (5-(4-Methyl-1-piperazinyl)-2-{[methyl(6,7,8,9-tetrahydro-5H-cyclohepta[b]pyridin-9-yl)amino]methyl}imidazo[1,2-a]pyridin-3-yl)methanol] | < 100 |
| CC(C)N(Cc1nc2cccc(N3CC[C@@H](N(C)C)C3)n2c1CO)[C@H]1CCCc2cccnc21 [Example 70, [5-[(3R)-3-(Dimethylamino)-1-pyrrolidinyl]-2-({(1-methylethyl)[(8S)-5,6,7,8-tetrahydro-8-quinolinyl]amino}methyl)imidazo[1,2-a]pyridin-3-yl]methanol] | < 100 |
| CN1CCCN(c2cccc3nc(CN(C)[C@H]4CCCc5cccnc54)c(CO)n23)CC1 [Example 50, [5-(4-Methylhexahydro-1H-1,4-diazepin-1-yl)-2-({methyl[(8S)-5,6,7,8-tetrahydro-8-quinolinyl]amino}methyl)imidazo[1,2-a]pyridin-3-yl]methanol] | < 100 |
| CC(C)N1CCN(c2cccc3nc(CN(C)[C@H]4CCCc5cccnc54)c(CO)n23)CC1 [Example 56, [5-[4-(1-Methylethyl)-1-piperazinyl]-2-({methyl[(8S)-5,6,7,8-tetrahydro-8-quinolinyl]amino}methyl)imidazo[1,2-a]pyridin-3-yl]methanol] | < 100 |
| CCOCc1c(CN(C)[C@H]2CCCc3cccnc32)nc2cccc(N3CCN(C)CC3)n12 [Example 87, (8S)—N-{[3-[(Ethyloxy)methyl]-5-(4-methyl-1-piperazinyl)imidazo[1,2-a]pyridin-2-yl]methyl}-N-methyl-5,6,7,8-tetrahydro-8-quinolinamine] | < 100 |
| CN1CCN(c2cccc3nc(CN(C)C4CCCc5cccnc54)c(C(O)C(F)(F)F)n23)CC1 (stereo not shown) [Example 89A, 2,2,2-Trifluoro-1-(5-(4-methyl-1-piperazinyl)-2-{[methyl(5,6,7,8-tetrahydro-8-quinolinyl)amino]methyl}imidazo[1,2-a]pyridin-3-yl)ethanol] | < 100 |
| CN(Cc1nc2cccc(N3CCCNCC3)n2c1CO)[C@H]1CCCc2cccnc21 [Example 48, [5-(Hexahydro-1H-1,4-diazepin-1-yl)-2-({methyl[(8S)-5,6,7,8-tetrahydro-8-quinolinyl]amino}methyl)imidazo[1,2-a]pyridin-3-yl]methanol] | < 100 |
| CN1CCC(N(C)c2cccc3nc(CN(C)[C@H]4CCCc5cccnc54)c(CO)n23)C1 (stereo partly drawn) [Example 52, [5-[Methyl(1-methyl-3-pyrrolidinyl)amino]-2-({methyl[(8S)-5,6,7,8-tetrahydro-8-quinolinyl]amino}methyl)imidazo[1,2-a]pyridin-3-yl]methanol] | < 100 |
| CN(C)[C@@H]1CCN(c2cccc3nc(CN(CC4CC4)[C@H]4CCCc5cccnc54)c(CO)n23)C1 [Example 72, {2-({(Cyclopropylmethyl)[(8S)-5,6,7,8-tetrahydro-8-quinolinyl]amino}methyl)-5-[(3R)-3-(dimethylamino)-1-pyrrolidinyl]imidazo[1,2-a]pyridin-3-yl}methanol] | < 100 |
| CN(C)[C@@H]1CCN(c2cccc3nc(CN(C)[C@H]4CCCc5cccnc54)c(CO)n23)C1 [Example 46, [5-[(3R)-3-(Dimethylamino)-1-pyrrolidinyl]-2-({methyl[(8S)-5,6,7,8-tetrahydro-8-quinolinyl]amino}methyl)imidazo[1,2-a]pyridin-3-yl]methanol] | < 100 |
